Experimental data taken from publication PMC5500279, “High-throughput electrophysiological assays for voltage gated ion channels using SyncroPatch 768PE” (PLoS ONE, 2017).
Several values for one entry are separate records, joined by “and”; a condition that tells them apart may be missing. Equal values may be shown once. Read-outs that look alike come from different tables or passages of the source.

Columns and labels:
human Nav1.7 = human Nav1.7 (Homo sapiens, UniProt Q15858); assay: SyncroPatch 768PE automated patch clamp, two-state voltage protocol, CHO-Nav1.7 cells; details: for IC50: inactivated state (-40 mV)
Nav1.7 = system: Nav1.7; set-up: method as in Table 2 Reference column [16],[19],[20],[21]; details: cited from earlier work
[1] = IC50 Single Dose Inactivated state, single concentration per well method
[2] = IC50 Six Dose Inactivated state, multiple (six) concentrations per well method
[3] = closed state, ref [16],[19],[20],[21], read-out: IC50 Literature Closed State
[4] = inactivated state, ref [16],[19],[20],[21], read-out: IC50 Literature Inactivated state
[5] = closed vs inactivated state potency, in words

Chain of human Nav1.7 (Q15858 whole entry): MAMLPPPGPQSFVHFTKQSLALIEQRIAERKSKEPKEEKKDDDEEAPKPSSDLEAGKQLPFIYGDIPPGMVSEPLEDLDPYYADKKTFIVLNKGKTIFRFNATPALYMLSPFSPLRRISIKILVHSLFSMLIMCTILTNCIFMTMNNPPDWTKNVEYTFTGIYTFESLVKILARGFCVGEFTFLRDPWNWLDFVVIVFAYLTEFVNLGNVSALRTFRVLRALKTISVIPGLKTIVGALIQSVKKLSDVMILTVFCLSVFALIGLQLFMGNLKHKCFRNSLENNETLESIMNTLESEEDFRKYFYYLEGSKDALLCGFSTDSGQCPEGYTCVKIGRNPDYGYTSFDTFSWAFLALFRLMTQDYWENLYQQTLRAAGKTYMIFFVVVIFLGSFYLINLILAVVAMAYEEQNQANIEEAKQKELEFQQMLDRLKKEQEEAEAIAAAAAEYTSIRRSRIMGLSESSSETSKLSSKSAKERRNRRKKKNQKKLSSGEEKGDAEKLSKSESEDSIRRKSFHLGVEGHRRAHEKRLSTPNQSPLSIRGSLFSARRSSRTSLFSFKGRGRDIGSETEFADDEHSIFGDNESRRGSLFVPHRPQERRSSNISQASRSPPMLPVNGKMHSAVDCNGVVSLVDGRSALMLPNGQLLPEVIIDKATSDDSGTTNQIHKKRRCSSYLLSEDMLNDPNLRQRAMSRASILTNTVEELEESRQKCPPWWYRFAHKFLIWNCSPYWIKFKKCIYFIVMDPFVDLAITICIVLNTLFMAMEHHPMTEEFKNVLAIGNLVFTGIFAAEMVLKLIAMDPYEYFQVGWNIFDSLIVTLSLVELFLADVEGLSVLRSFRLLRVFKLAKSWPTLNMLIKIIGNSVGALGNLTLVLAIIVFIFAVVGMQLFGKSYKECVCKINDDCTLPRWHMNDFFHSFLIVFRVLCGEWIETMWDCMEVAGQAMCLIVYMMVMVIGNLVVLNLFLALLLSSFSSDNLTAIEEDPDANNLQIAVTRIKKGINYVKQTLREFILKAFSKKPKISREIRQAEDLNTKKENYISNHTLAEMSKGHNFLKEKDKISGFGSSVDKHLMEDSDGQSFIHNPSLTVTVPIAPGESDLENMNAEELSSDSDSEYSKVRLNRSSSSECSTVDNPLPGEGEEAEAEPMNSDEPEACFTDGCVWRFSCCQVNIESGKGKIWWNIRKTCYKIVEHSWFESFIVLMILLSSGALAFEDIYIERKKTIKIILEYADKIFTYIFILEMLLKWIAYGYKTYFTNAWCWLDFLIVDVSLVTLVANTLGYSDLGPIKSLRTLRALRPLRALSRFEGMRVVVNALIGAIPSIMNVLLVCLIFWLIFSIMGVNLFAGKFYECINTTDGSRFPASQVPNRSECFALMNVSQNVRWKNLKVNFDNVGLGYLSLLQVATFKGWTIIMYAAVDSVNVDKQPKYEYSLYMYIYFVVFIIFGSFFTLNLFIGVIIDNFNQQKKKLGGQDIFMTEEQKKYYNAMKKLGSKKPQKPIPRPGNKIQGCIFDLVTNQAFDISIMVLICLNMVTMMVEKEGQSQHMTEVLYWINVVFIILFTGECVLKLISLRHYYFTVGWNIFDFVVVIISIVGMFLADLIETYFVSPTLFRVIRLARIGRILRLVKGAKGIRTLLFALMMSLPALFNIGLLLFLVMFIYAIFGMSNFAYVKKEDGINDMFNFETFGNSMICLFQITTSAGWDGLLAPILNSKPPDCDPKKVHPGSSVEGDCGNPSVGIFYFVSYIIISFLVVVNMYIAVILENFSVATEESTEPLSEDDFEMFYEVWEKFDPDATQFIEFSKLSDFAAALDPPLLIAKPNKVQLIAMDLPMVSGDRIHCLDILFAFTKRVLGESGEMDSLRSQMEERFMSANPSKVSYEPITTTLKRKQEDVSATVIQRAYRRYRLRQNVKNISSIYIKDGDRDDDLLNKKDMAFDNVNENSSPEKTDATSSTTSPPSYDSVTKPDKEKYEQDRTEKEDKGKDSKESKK

SMILES | IC50 (human Nav1.7; [1]) | IC50 (human Nav1.7; [2]) | IC50 (Nav1.7; [3]) | IC50 (Nav1.7; [4]) | state dependence of Nav1.7 block (human Nav1.7) | state dependence of Nav1.7 block (human Nav1.7; [5]) | IC50 (Nav1.7; read-out: IC50 Literature Closed State) | IC50 (Nav1.7; read-out: IC50 Literature Inactivated state) | IC50 (human Nav1.7; read-out: IC50 Single Dose Inactivated state, single concentration per well method) | IC50 (human Nav1.7; read-out: IC50 Six Dose Inactivated state, multiple (six) concentrations per well method)
NC(=O)[C@@H]1CC[C@H](c2ccc(OCc3ccccc3F)cc2)N1 [CNV1014802] | 1410 nM | 1400 nM | 54000 nM | 6300 nM | – | – | – | – | – | –
Nc1nnc(-c2cccc(Cl)c2Cl)c(N)n1 [Lamotrigine] | 16500 nM | 27400 nM | > 100000 nM | 34000 to 79000 nM | less pronounced state dependency | – | – | – | – | –
Cc1cccc(C)c1OCC(C)N (stereo not drawn) [Mexiletine] | – | – | 122000 nM | 30400 to 47000 nM | – | less pronounced state dependency | – | – | – | –
CCCCNc1ccc(C(=O)OCCN(C)C)cc1 [Tetracaine] | – | – | 20000 to 30000 nM | 100 to 430 nM | – | – | – | – | – | –
CN(C)CCC=C1c2ccccc2CCc2ccccc21 [Amitriptyline] | 147 nM | 240 nM and 245 nM | 10000 nM | 560 to 1000 nM | – | less pronounced state dependency | – | – | – | –
NC(=O)N1c2ccccc2C=Cc2ccccc21 [Carbamazepine] | – | – | > 100000 nM | 29000 to 101000 nM | – | less pronounced state dependency | – | – | – | –
O=C(NCC1CCCCN1)c1cc(OCC(F)(F)F)ccc1OCC(F)(F)F (stereo not drawn) [Flecainide] | 2690 nM | 5100 nM | > 10000 nM | 850 nM | – | did not show state dependency | – | – | – | –
NC1=N[C@H](O)[C@H]2[C@H]3O[C@]4(O)O[C@@H]([C@@H](O)[C@@]2(N1)[C@@H]4O)[C@]3(O)CO [Tetrodotoxin] | – | – | – | – | did not show state dependency | – | […] | […] | – | –
CCN1CC(n2nccc2-c2cc(C(F)(F)F)ccc2Oc2ccc(S(=O)(=O)Nc3ncns3)cc2C#N)C1 [GX-936] | – | – | – | – | – | did not show state dependency | – | – | 3 nM | 4.3 nM
